Laboratory results: publication PMC7892475, “C-Terminal Amination of a Cationic Anti-Inflammatory Peptide Improves Bioavailability and Inhibitory Activity Against LPS-Induced Inflammation” (Frontiers in Immunology, 2021)

What was measured:
[1] = test system: LPS-induced sepsis in C57/BL6 mice; assay: LPS-induced murine model of sepsis; assay type: in vivo, mouse
Method: Male C57/BL6 mice (6–8 weeks of age) were purchased from Charles River (Beijing, China). The mice were maintained in a specific-pathogen-free (SPF) environment at 22 ± 1°C with relative 55 ± 10% humidity during the experiments. The assays were performed in conformity with the laws and regulations for live animal treatments at China Agricultural University.
The mice were randomly distributed into three groups (n = 12 each): control, LPS (E. coli, O111:B4, Sigma-Aldrich, USA) treatment, and CTP-NH2 pretreatment followed by LPS treatment (CTP-NH2 + LPS). For the first 7 days, CTP-NH2 (10 mg/kg mouse weight) was injected intraperitoneally once daily. Meanwhile, an equal volume of sterile saline was injected into mice in the control and LPS-treated groups. On day 7, LPS (10 mg/kg mouse weight) was injected intraperitoneally into mice in the LPS and CTP-NH2 + LPS groups to establish the sepsis animal model. The control group was intraperitoneally injected with an equal volume of saline. Sixteen hours after the LPS injection, the mice were euthanized by cervical dislocation, and samples of the […] were collected for analysis.
The mouse liver tissues were fixed in 4% paraformaldehyde, embedded in paraffin and cut into 5-μm-thick sections using an RM2235 microtome (Leica, Germany). The sections were stained with hematoxylin-eosin (H&E), and a DM3000 microscope was used to acquire images. LPS-induced liver injury was evaluated according to the following four categories: […]. The liver injury score was graded on a 0- to 4-point scale: 0, no injury; 1, up to 25% injury in the field; 2, up to 50% injury in the field; 3, up to 75% injury in the field; 4, diffuse injury ([43]).
For immunohistochemical analysis, the sections were blocked with PBS containing 1% w/v BSA for 1 h at room temperature. Afterwards, the sections were incubated with anti-CD177^+ antibody (1:100; Santa, USA). Samples were washed with PBS followed by incubation with horse-radish peroxidase (HRP)-conjugated rabbit anti-goat IgG (1:100; JIR, USA) at 4°C for 1 h. Subsequently, slides were stained with 3,3’-diaminobenzidine (DAB; DAKO, USA) and then counterstained with Harris hematoxylin. Finally, the samples were dehydrated in an alcohol gradient (70-100%) and cleared in xylene. All slides were mounted in neutral balsam.
The levels of tumor necrosis factor (TNF)-α, interleukin (IL)-6, and IL-1β in cell culture supernatants and the levels of TNF-α, IL-6, and IL-1β in the serum of mice were detected using commercial ELISA kits (eBioscience, San Diego, USA) according to the manufacturer’s instructions. The levels of serum alanine amino transferase (ALT) and aspartate amino transferase (AST) were detected using commercial reagent kits (Nanjing Jiancheng Bioengineering Institute, Nanjing, China). The activity of myeloperoxidase (MPO) in the liver of mice was detected using an ELISA kit (Boster, Wuhan, China) according to the manufacturer’s instructions.

[2] = LPS neutralization, chromogenic end-point Tachypleus Amebocyte Lysate (TAL) assay; assay type: binding, E. coli; conditions: chromogenic TAL assay, LPS 1.0 U/ml, 0 to 64 μg/ml peptide
Method: The neutralization of LPS by the peptides was assessed through a quantitative Chromogenic End-point Tachypleus Amebocyte Lysate (CE TAL) assay using a QCL-1000 kit (XIAMEN BIOENDO TECHNOLOGY CO., China). LPS (E. coli, O111:B4, Sigma-Aldrich, USA) at a final concentration of 1.0 U/ml was incubated with various concentrations of the peptides (0 to 64 μg/ml final concentration) at 37°C for 15 min. Afterwards, the mixtures were incubated with TAL assay reagent at 37°C; for 6 min, and the absorbance was measured at 540 nm.

## RWGRFLRKIRRFRRKDVT-NH2 [CTP-NH2, C-terminal amidated derivative peptide of CTP]
[1]; ELISA, 10 mg/kg i.p. pretreatment, LPS 10 mg/kg i.p., vs LPS-treated mice
  liver MPO activity: significantly reduced this effect
[1]; immunohistochemistry, 10 mg/kg i.p. pretreatment, LPS 10 mg/kg i.p., vs LPS-treated group
  infiltration of CD177+ neutrophils into the liver: significantly lower
[1]; male C57/BL6 mice, 10 mg/kg i.p. once daily 7 days (Figure 8 legend: 6 days), then LPS 10 mg/kg i.p., 16 h, ELISA, vs LPS-treated group
  serum TNF-α, IL-6 and IL-1β levels: significantly decreased levels of TNF-α
[1]; male C57/BL6 mice, 10 mg/kg i.p. once daily pretreatment, LPS 10 mg/kg i.p., score 0 to 4
  severity of liver injury (H&E, liver injury score): attenuated
[1]; male C57/BL6 mice, 10 mg/kg i.p. once daily pretreatment, LPS 10 mg/kg i.p., vs LPS-treated group
  serum ALT and AST: significantly attenuated these effects
[2]
  LPS neutralization activity: stronger than that of CTP
